≈ marks a conversion by molar mass, not a printed value. Where “and” joins values, the source holds several entries; their conditions need not be identical. Equal values may be shown once. Read-outs that look alike come from different tables or passages of the source.
Tests used:
Mycoplasma pneumoniae [1] = details: Mycoplasma pneumoniae ATCC 29342; CLSI M43-A acceptable QC range; cited from earlier work
Ureaplasma species [2] = details: Ureaplasma urealyticum ATCC 33175; CLSI M43-A acceptable QC range; cited from earlier work
Mycoplasma genitalium = test: microbe, parasite or virus in culture; assay type: cell-based; details: for MIC: Mycoplasmoides genitalium
Burkholderia mallei = test: microbe, parasite or virus in culture; assay type: cell-based
Yersinia pestis = test: microbe, parasite or virus in culture; assay type: cell-based; details: Yersinia pestis
Brucella suis = test: microbe, parasite or virus in culture; assay type: cell-based
Mycoplasma pneumoniae [3] = test: Broth microdilution MIC assay (CLSI M43-A), M. pneumoniae; assay type: cell-based; details: for MIC: read-out: MIC
Bacillus anthracis = test: microbe, parasite or virus in culture; assay type: cell-based; details: Bacillus anthracis
Mycoplasma hominis = test: microbe, parasite or virus in culture; assay type: cell-based
Ureaplasma species [4] = test: microbe, parasite or virus in culture; assay type: cell-based, Ureaplasma urealyticum, Ureaplasma parvum
Brucella abortus = test: microbe, parasite or virus in culture; assay type: cell-based
Francisella tularensis = test: microbe, parasite or virus in culture; assay type: cell-based; details: Francisella tularensis

## CC[C@H]1OC(=O)[C@H](C)[C@@H](O[C@H]2C[C@@](C)(OC)[C@@H](O)[C@H](C)O2)[C@H](C)[C@@H](O[C@@H]2O[C@H](C)C[C@H](N(C)C)[C@H]2O)[C@](C)(O)C[C@@H](C)C(=O)[C@H](C)[C@@H](O)[C@]1(C)O [Erythromycin]
Mycoplasma pneumoniae [1]
  MIC Limits for Quality Control Strain: 0.004 to 0.063 µg/mL
Ureaplasma species [2]
  MIC Limits for Quality Control Strain: 1 to 8 µg/mL

## C[C@H]1COc2c(N3CCN(C)CC3)c(F)cc3c(=O)c(C(=O)O)cn1c23 [Levofloxacin]
Mycoplasma genitalium
  MIC Range: 0.5 to 2 µg/mL
  MIC: 0.5 µg/mL (≈ 1.38 µM)
Mycoplasma genitalium; ATCC33530
  MIC: 2 µg/mL (≈ 5.53 µM)
Mycoplasma genitalium; ATCC49895
  MIC: 2 µg/mL (≈ 5.53 µM)
Mycoplasma genitalium; ATCC49899
  MIC: 2 µg/mL (≈ 5.53 µM)
Burkholderia mallei
  MIC: 0.5 µg/mL and 0.25 µg/mL
Yersinia pestis
  MIC: ≤ 0.25 µg/mL
Brucella suis
  MIC: 0.25 µg/mL (≈ 0.692 µM)
Brucella suis; Brucella suis
  MIC: 0.5 µg/mL (≈ 1.38 µM)
Mycoplasma pneumoniae [3]; M. pneumoniae M-129 QC Strain ATCC 29342-B7
  MIC: 1 µg/mL (≈ 2.77 µM)
Mycoplasma pneumoniae [3]; M. pneumoniae isolate 51494
  MIC: 1 µg/mL (≈ 2.77 µM)
Mycoplasma pneumoniae [3]; M. pneumoniae isolate 53706
  MIC: 0.5 µg/mL (≈ 1.38 µM)
Mycoplasma pneumoniae [3]; M. pneumoniae isolate 53938
  MIC: 1 µg/mL (≈ 2.77 µM)
Mycoplasma pneumoniae [3]; M. pneumoniae isolate 54484, macrolide-resistant
  MIC: 0.5 µg/mL (≈ 1.38 µM)
Mycoplasma pneumoniae [3]; M. pneumoniae isolate 54506, macrolide-resistant
  MIC: 0.5 µg/mL (≈ 1.38 µM)
Mycoplasma pneumoniae [3]; M. pneumoniae isolate 55246
  MIC: 1 µg/mL (≈ 2.77 µM)
Mycoplasma pneumoniae [3]; M. pneumoniae isolate 55612
  MIC: 0.5 µg/mL (≈ 1.38 µM)
Mycoplasma pneumoniae [3]; M. pneumoniae isolate 57807
  MIC: 0.5 µg/mL (≈ 1.38 µM)
Mycoplasma pneumoniae [3]; M. pneumoniae isolate 58188
  MIC: 0.5 µg/mL (≈ 1.38 µM)
Mycoplasma pneumoniae [3]; M. pneumoniae isolate 58772
  MIC: 1 µg/mL (≈ 2.77 µM)
Mycoplasma pneumoniae [3]; M. pneumoniae isolate 59597
  MIC: 0.5 µg/mL (≈ 1.38 µM)
Mycoplasma pneumoniae [3]; M. pneumoniae isolate 59598
  MIC: 1 µg/mL (≈ 2.77 µM)
Mycoplasma pneumoniae [3]; M. pneumoniae isolates, n = 12
  MIC50: 0.5 µg/mL (≈ 1.38 µM)
  MIC90: 1 µg/mL (≈ 2.77 µM)
  MIC Range: 0.5 to 1 µg/mL
Bacillus anthracis
  MIC: ≤ 0.25 µg/mL
Mycoplasma hominis
  MIC Range: 0.063 to 0.25 µg/mL
Mycoplasma hominis; Metamycoplasma hominis
  MIC50: 0.125 µg/mL (≈ 0.346 µM)
  MIC90: 0.25 µg/mL (≈ 0.692 µM)
Ureaplasma species [4]
  MIC Range: 0.25 to 32 µg/mL
Ureaplasma species [4]; Ureaplasma
  MIC50: 1 µg/mL (≈ 2.77 µM)
  MIC90: 8 µg/mL (≈ 22.1 µM)
Ureaplasma species [4]; Ureaplasma, ATCC33175
  MIC: 1 µg/mL (≈ 2.77 µM)
Brucella abortus
  MIC: 0.25 µg/mL (≈ 0.692 µM)
Brucella abortus; Brucella abortus
  MIC: 0.5 µg/mL (≈ 1.38 µM)
Francisella tularensis
  MIC: ≤ 0.125 µg/mL

## CC[C@H]1OC(=O)[C@H](C)C(=O)[C@H](C)[C@@H](O[C@@H]2O[C@H](C)C[C@H](N(C)C)[C@H]2O)[C@](C)(OC)C[C@@H](C)C(=O)[C@H](C)[C@H]2N(CCCCn3cnc(-c4cccnc4)c3)C(=O)O[C@]12C [Telithromycin]
Ureaplasma species [2]
  MIC Limits for Quality Control Strain: 0.125 to 1 µg/mL

## CN(C)[C@@H]1C(O)=C(C(N)=O)C(=O)[C@@]2(O)C(O)=C3C(=O)c4c(O)cccc4[C@@](C)(O)[C@H]3C[C@@H]12 [Tetracycline]
Mycoplasma hominis
  MICs for isolates with tetM: 32 µg/mL

From patent publication US10238661B2, “Fused, spirocyclic heteroaromatic compounds for the treatment of bacterial infections” (priority 2014, dated 2019)
